Key:
Assay type in all cases: in vivo
[1] = test system: barnyardgrass (Echinochloa crus-galli); test: Test A preemergence; conditions: Echinochloa crus-galli, pre-emergence, 240 h, 0 to 100 scale (0 no effect, 100 complete control), read-out: Plant response rating, Barnyardgrass
Procedure, shortened: (§1)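 Treatment is preemergence as a directed soil spray after planting, or postemergence at the one- to two-leaf stage, with test chemical in a non-phytotoxic solvent mixture plus surfactant. Plants stay in the greenhouse about 10 d before visual injury scoring on a 0 to 100 scale versus untreated controls.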

[2] = test system: ryegrass, Italian (Italian ryegrass, Lolium multiflorum); test: Test A preemergence; conditions: Lolium multiflorum, pre-emergence, 240 h, 0 to 100 scale (0 no effect, 100 complete control), read-out: Plant response rating, Ryegrass, Italian
Procedure, shortened: as §1

[3] = test system: ragweed (common ragweed, Ambrosia elatior); test: Test A preemergence; conditions: Ambrosia artemisiifolia, pre-emergence, 240 h, 0 to 100 scale (0 no effect, 100 complete control), read-out: Plant response rating, Ragweed
Procedure, shortened: as §1

[4] = test system: giant foxtail (Setaria faberii); test: Test A preemergence; conditions: Setaria faberi, pre-emergence, 240 h, 0 to 100 scale (0 no effect, 100 complete control), read-out: Plant response rating, Foxtail, Giant
Procedure, shortened: as §1

[5] = test system: pigweed (Amaranthus retroflexus); test: Test A preemergence; conditions: Amaranthus retroflexus, pre-emergence, 240 h, 0 to 100 scale (0 no effect, 100 complete control), read-out: Plant response rating, Pigweed
Kochia (Kochia scoparia) [6] = test: Test A preemergence; conditions: Bassia scoparia, pre-emergence, 240 h, 0 to 100 scale (0 no effect, 100 complete control), read-out: Plant response rating, Kochia
Procedure, shortened: as §1

[7] = test system: wheat (Triticum aestivum); test: Test A postemergence; conditions: Triticum aestivum, post-emergence, 240 h, Postemergence
Procedure, shortened: as §1

[8] = test system: giant foxtail (Setaria faberii); test: Test A postemergence; conditions: Setaria faberi, post-emergence, 240 h, Postemergence
Procedure, shortened: as §1

[9] = test system: pigweed (Amaranthus retroflexus); test: Test A postemergence; conditions: Amaranthus retroflexus, post-emergence, 240 h, Postemergence
Procedure, shortened: as §1

Kochia (Kochia scoparia) [10] = test: Test A postemergence; conditions: Bassia scoparia, post-emergence, 240 h, Postemergence
Procedure, shortened: as §1

[11] = test system: Galium (catchweed bedstraw, Galium aparine); test: Test A postemergence; conditions: Galium, post-emergence, 240 h, Postemergence
Procedure, shortened: as §1

[12] = test system: barnyardgrass (Echinochloa crus-galli); test: Test B flooded paddy test; conditions: Echinochloa crus-galli, 360 h, Flood, 250 g ai/ha; visually evaluated after 13 to 15 d; read-out: Plant response rating, Barnyardgrass (0 to 100 scale where 0 is no effect and 100 is complete control)
Procedure, shortened: (§2)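 Percent control, visually estimated after 13–15 d in the greenhouse on a 0–100 basis, compares treated pots with untreated ones; compound was put into paddy water 3 cm above the soil when plants had two leaves.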

rice (Oryra sativa) = test: Test B flooded paddy test; conditions: Oryza sativa, 360 h, Flood, 250 g ai/ha; visually evaluated after 13 to 15 d; read-out: Plant response rating, Rice (0 to 100 scale where 0 is no effect and 100 is complete control)
Procedure, shortened: as §2

[13] = test system: sedge, umbrella (small-flower umbrella sedge, Cyperus difformis); test: Test B flooded paddy test; conditions: Cyperus difformis, 360 h, Flood, 250 g ai/ha; visually evaluated after 13 to 15 d; read-out: Plant response rating, Sedge, Umbrella (0 to 100 scale where 0 is no effect and 100 is complete control)
Procedure, shortened: as §2

[14] = test system: ducksalad (Heteranthera limosa); test: Test B flooded paddy test; conditions: Heteranthera limosa, 360 h, Flood, 250 g ai/ha; visually evaluated after 13 to 15 d; read-out: Plant response rating, Ducksalad (0 to 100 scale where 0 is no effect and 100 is complete control)
Procedure, shortened: as §2

Q: How did the pest or weed control at 500 g/ha ([1]; 500 g ai/ha, preemergence) turn out when N#Cc1cc([C@H]2CNC(=O)[C@]2(O)C(=O)Nc2cccc(F)c2F)ccc1F [Compound 1374] was run?
A: The pest or weed control at 500 g/ha was 0%.

Q: And the pest or weed control at 125 g/ha ([1]; Preemergence, 125 g ai/ha)?
A: The pest or weed control at 125 g/ha was 0%.

Q: What about the pest or weed control at 500 g/ha ([2]; 500 g ai/ha, preemergence) of the same compound?
A: The pest or weed control at 500 g/ha was 0%.

Q: And the pest or weed control at 125 g/ha ([2]; Preemergence, 125 g ai/ha)?
A: Its pest or weed control at 125 g/ha is 0%.

Q: What about the pest or weed control at 500 g/ha ([3]; 500 g ai/ha, preemergence) of the same compound?
A: Its pest or weed control at 500 g/ha is 0%.

Q: What about the pest or weed control at 125 g/ha ([3]; Preemergence, 125 g ai/ha) of the same compound?
A: The pest or weed control at 125 g/ha was 0%.

Q: What about the pest or weed control at 500 g/ha ([4]; 500 g ai/ha, preemergence) of the same compound?
A: The pest or weed control at 500 g/ha was 0%.

Q: What about the pest or weed control at 125 g/ha ([4]; Preemergence, 125 g ai/ha) of the same compound?
A: The pest or weed control at 125 g/ha was 0%.

Q: What about the pest or weed control at 500 g/ha ([5]; 500 g ai/ha, preemergence) of the same compound?
A: The pest or weed control at 500 g/ha was 0%.

Q: What about the pest or weed control at 125 g/ha ([5]; Preemergence, 125 g ai/ha) of the same compound?
A: The pest or weed control at 125 g/ha was 0%.

Q: And the pest or weed control at 500 g/ha (Kochia (Kochia scoparia) [6]; 500 g ai/ha, preemergence)?
A: Its pest or weed control at 500 g/ha is 0%.

Q: And the pest or weed control at 125 g/ha (Kochia (Kochia scoparia) [6]; Preemergence, 125 g ai/ha)?
A: The pest or weed control at 125 g/ha was 0%.

Q: And the plant injury at 125 g/ha ([7]; 125 g ai/ha, visual rating about 10 d after treatment, read-out: Wheat plant response rating (0 to 100 scale))?
A: Its plant injury at 125 g/ha is 0%.

Q: And the plant injury at 500 g/ha ([7]; 500 g ai/ha, visual injury, 0 to 100 scale (0 no effect, 100 complete control), approx. 10 d, read-out: Plant response rating, Wheat)?
A: Its plant injury at 500 g/ha is 0%.

Q: What about the pest or weed control at 125 g/ha ([8]; 125 g ai/ha, visual rating about 10 d after treatment, read-out: Foxtail, Giant plant response rating (0 to 100 scale)) of the same compound?
A: Its pest or weed control at 125 g/ha is 0%.

Q: What about the pest or weed control at 500 g/ha ([8]; 500 g ai/ha, visual injury, 0 to 100 scale (0 no effect, 100 complete control), approx. 10 d, read-out: Plant response rating, Foxtail, Giant) of the same compound?
A: The pest or weed control at 500 g/ha was 0%.

Q: And the pest or weed control at 125 g/ha ([9]; 125 g ai/ha, visual rating about 10 d after treatment, read-out: Pigweed plant response rating (0 to 100 scale))?
A: The pest or weed control at 125 g/ha was 0%.

Q: What about the pest or weed control at 500 g/ha ([9]; 500 g ai/ha, visual injury, 0 to 100 scale (0 no effect, 100 complete control), approx. 10 d, read-out: Plant response rating, Pigweed) of the same compound?
A: The pest or weed control at 500 g/ha was 0%.

Q: What about the pest or weed control at 125 g/ha (Kochia (Kochia scoparia) [10]; 125 g ai/ha, visual rating about 10 d after treatment, read-out: Kochia plant response rating (0 to 100 scale)) of the same compound?
A: Its pest or weed control at 125 g/ha is 0%.

Q: And the pest or weed control at 500 g/ha (Kochia (Kochia scoparia) [10]; 500 g ai/ha, visual injury, 0 to 100 scale (0 no effect, 100 complete control), approx. 10 d, read-out: Plant response rating, Kochia)?
A: Its pest or weed control at 500 g/ha is 0%.

Q: And the pest or weed control at 125 g/ha ([11]; 125 g ai/ha, visual rating about 10 d after treatment, read-out: Galium plant response rating (0 to 100 scale))?
A: The pest or weed control at 125 g/ha was 0%.

Q: And the pest or weed control at 500 g/ha ([11]; 500 g ai/ha, visual injury, 0 to 100 scale (0 no effect, 100 complete control), approx. 10 d, read-out: Plant response rating, Galium)?
A: Its pest or weed control at 500 g/ha is 0%.

Q: What about the pest or weed control at 250 g/ha [12] of the same compound?
A: The pest or weed control at 250 g/ha was 0%.

Q: And the pest or weed control at 250 g/ha (rice (Oryra sativa))?
A: Its pest or weed control at 250 g/ha is 20%.

Q: What about the pest or weed control at 250 g/ha [13] of the same compound?
A: The pest or weed control at 250 g/ha was 0%.

Q: And the pest or weed control at 250 g/ha [14]?
A: The pest or weed control at 250 g/ha was 0%.

Source: US12077503B2, “Substituted cyclic amides and their use as herbicides” (FMC CORPORATION, priority 2015, dated 2024)
